Results on 1 compound are retold here after patent EP1208096B1, “SUBSTITUTED PYRIDAZINES AND FUSED PYRIDAZINES WITH ANGIOGENESIS INHIBITING ACTIVITY” (Bayer Corporation, priority 1999, dated 2001).

In assay [1] the test system is SK-MEL2 human tumor cells that were transfected with a plasmid containing the murine VEGF gene. The assay can be described thus: Matrigel Angiogenesis Model (hemoglobin content of Matrigel plugs). Format: in vivo, Mice. The following applies: 30, 100 and 300 mg/kg po sid; 12 days post-implantation; vs. vehicle control animals. The protocol: Preparation of Matrigel Plugs and in vivo Phase: Matrigel® (Collaborative Biomedical Products, Bedford, MA) is a basement membrane extract from a murine tumor composed primarily of laminin, collagen IV and heparan sulfate proteoglycan. It is provided as a sterile liquid at 4° C, but rapidly forms a solid gel at 37° C.
Liquid Matrigel at 4° C was mixed with SK-MEL2 human tumor cells that were transfected with a plasmid containing the murine VEGF gene with a selectable marker. Tumor cells were grown in vitro under selection and cells were mixed with cold liquid Matrigel at a ratio of 2 X 10^6 per 0.5 ml. […]
Optical densities were determined spectrophotometrically at 600 nm in a 96-well plate reader, SpectraMax 250 Microplate Spectrophotometer System (Molecular Devices, Sunnyvale, CA). Background Lysis Buffer readings were subtracted from all wells.
Total sample hemoglobin content was calculated according to the following equation: Total Hemoglobin = (Sample Lysate Volume) x (Hemoglobin Concentration) [formula]
The average Total Hemoglobin of Matrigel samples without cells was subtracted from each Total Hemoglobin Matrigel sample with cells. Percent inhibition was calculated according to the following equation: % Inhibition =((Average Total Hemoglobin Drug-Treated Tumor Lysates) X 100)/((Average Total Hemoglobin Non-Treated Tumor Lysates)) [formula]

The target of assay [2] is T1, cytosolic kinase domain of KDR kinase (Homo sapiens, UniProt P35968).
T1 construct: The cytosolic kinase domain of KDR kinase was expressed as a 6His fusion protein in Sf9 insect cells; 6His; made in house; host or cells: Sf9 insect cells
T1 sequence (P35968 834-1162 limits assumed): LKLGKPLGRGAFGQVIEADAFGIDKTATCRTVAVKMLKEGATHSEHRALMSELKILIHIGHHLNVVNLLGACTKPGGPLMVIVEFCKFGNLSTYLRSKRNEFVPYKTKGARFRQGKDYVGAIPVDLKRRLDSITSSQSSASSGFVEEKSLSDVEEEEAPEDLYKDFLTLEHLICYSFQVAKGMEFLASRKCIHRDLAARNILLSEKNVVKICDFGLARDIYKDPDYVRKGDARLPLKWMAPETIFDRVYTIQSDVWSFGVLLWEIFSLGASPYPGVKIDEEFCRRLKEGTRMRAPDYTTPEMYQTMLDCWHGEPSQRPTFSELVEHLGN
Put plainly: KDR Assay (ELISA, phosphorylation of poly(Glu4;Tyr1)). The format is biochemical. As to conditions: 3.3 µM ATP, 60 minutes at room temperature, 30 ng KDR kinase domain. How it is done: The cytosolic kinase domain of KDR kinase was expressed as a 6His fusion protein in Sf9 insect cells. The KDR kinase domain fusion protein was purified over a Ni^++ chelating column. Ninety-six well ELISA plates were coated with 5 µg poly(Glu4;Tyr1) (Sigma Chemical Co., St Louis, MO) in 100 µl HEPES buffer (20 mM HEPES, pH 7.5, 150 mM NaCl, 0.02% Thimerosal) at 4° overnight. Before use, the plate was washed with HEPES, NaCl buffer and the plates were blocked with 1% BSA, 0.1% Tween 20 in HEPES, NaCl buffer.
Test compounds were serially diluted in 100% DMSO from 4 mM to 0.12 µM in half-log dilutions. These dilutions were further diluted twenty fold in H2O to obtain compound solutions in 5% DMSO. Following loading of the assay plate with 85 µl of assay buffer (20 mM HEPES, pH 7.5, 100 mM KCl, 10 mM MgCl2, 3 mM MnCl2, 0.05% glycerol, 0.005% Triton X-100, 1 mM -mercaptoethanol, with or without 3.3 µM ATP), 5 µl of the diluted compounds were added to a final assay volume of 100 µl. Final concentrations were between 10 µM, and 0.3 nM in 0.25% DMSO. The assay was initiated by the addition of 10µl (30 ng) of KDR kinase domain.
The assay was incubated with test compound or vehicle alone with gentle agitation at room temperature for 60 minutes. The wells were washed and phosphotyrosines (PY) were probed with an anti-phosphotyrosine (PY), mAb clone 4G10 (Upstate Biotechnology, Lake Placid, NY). PY/anti-PY complexes were detected with an anti-mouse IgG/HRP conjugate (Amersham International plc, Buckinghamshire, England). Phosphotyrosine was quantitated by incubating with 100 µl 3, 3', 5, 5' tetramethylbenzidine solution (Kirkegaard and Perry, TMB Microwell 1 Component peroxidase substrate). Color development was arrested by the addition of 100 µl 1% HCl-based stop solution (Kirkegaard and Perry, TMB I Component Stop Solution).
Optical densities were determined spectrophotometrically at 450 nm in a 96-well plate reader, SpectraMax 250 (Molecular Devices). Background (no ATP in assay) OD values were subtracted from all ODs and the percent inhibition was calculated according to the equation: % Inhibition =((OD(vehicle control) - OD(with compound)) X 100)/(OD(vehicle control) - OD(no ATP added)) [formula]
The IC50 values were determined with a least squares analysis program using compound concentration versus percent inhibition. Compounds that have IC50 < 100 nM in this assay include those of Examples 1, 2, 4, 5, 6, 7, 10, 11, 12, 13, 14, 15, 16 and 23. Compounds that have IC50 values between 100 nM and 1,000 nM include those of examples 8, 9 and 22. Those that have measured IC50 values > 1,000 nM include those of examples 3, 17, 18 and 21.

pIC50: −log10 of the molar value. Some results are limits rather than exact numbers.

With `CNC(=O)c1cc(Cc2nnc(Nc3ccc(Cl)cc3)c3ccccc23)ccn1` [Example 1, 4-[4-(4-Chlorophenylamino)phthalazin-1-ylmethyl]pyridin-2-yl carboxylic acid methylamide], the “inhibition of total hemoglobin content of the Matrigel samples” value in assay [1] is given as greater than 50%. Besides, in assay [2], the negative-log IC50 (pIC50) (as a rule, the negative decadic logarithm of the IC50, by convention in mol/L) was greater than 7.00.
